Measured values from patent US8710233B2 (Gruenenthal GmbH, priority 2005, dated 2014).
Read-outs that look alike come from different tables or passages of the source.

What was measured:
Assay type in all cases: cell-based
[1] = molecular target: T1, vanilloid receptor 1 (VR1/TRPV1) of the rat species (Rattus norvegicus, UniProt O35433); experiment: FLIPR Ca2+ influx assay on rat dorsal root ganglia cells (pharmacological method I)
T1 construct: The spinal column is removed from decapitated rats; from tissue; host or cells: primary cells dissociated from rat dorsal root ganglia
T1 sequence (O35433 whole entry): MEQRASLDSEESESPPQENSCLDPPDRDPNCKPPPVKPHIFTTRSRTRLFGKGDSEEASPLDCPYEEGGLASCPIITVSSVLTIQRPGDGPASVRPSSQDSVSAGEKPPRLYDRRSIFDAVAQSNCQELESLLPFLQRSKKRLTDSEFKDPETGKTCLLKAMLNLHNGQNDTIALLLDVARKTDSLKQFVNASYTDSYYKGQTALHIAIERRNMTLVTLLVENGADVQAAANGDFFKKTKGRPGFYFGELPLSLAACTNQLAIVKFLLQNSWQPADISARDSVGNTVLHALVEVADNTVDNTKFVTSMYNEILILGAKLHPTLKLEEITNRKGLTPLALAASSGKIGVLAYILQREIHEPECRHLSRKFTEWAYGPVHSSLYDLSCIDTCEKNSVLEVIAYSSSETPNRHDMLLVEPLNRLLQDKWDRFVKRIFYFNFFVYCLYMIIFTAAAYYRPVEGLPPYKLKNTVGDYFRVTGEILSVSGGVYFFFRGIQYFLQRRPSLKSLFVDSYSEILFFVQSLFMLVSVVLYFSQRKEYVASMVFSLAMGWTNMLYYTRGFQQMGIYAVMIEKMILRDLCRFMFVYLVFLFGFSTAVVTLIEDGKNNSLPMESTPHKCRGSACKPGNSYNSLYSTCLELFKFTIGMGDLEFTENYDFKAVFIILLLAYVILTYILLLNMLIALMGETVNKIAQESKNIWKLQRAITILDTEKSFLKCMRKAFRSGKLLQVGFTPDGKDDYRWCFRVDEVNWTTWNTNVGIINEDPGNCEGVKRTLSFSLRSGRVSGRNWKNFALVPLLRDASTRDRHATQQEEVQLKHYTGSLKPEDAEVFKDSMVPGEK
Text: I. Functional Investigation of the Vanilloid Receptor 1 (VR1/TRPV1 Receptor)
The agonistic or antagonistic action of the substances to be investigated on the vanilloid receptor 1 (VR1/TRPV1) of the rat species may be determined by the following assay. According to this assay, the influx of Ca^2+ through the receptor channel is quantified with the assistance of a Ca^2+-sensitive dye (type Fluo-4, Molecular Probes Europe BV, Leiden, Netherlands) in a Fluorescent Imaging Plate Reader (FLIPR, Molecular Devices, Sunnyvale, USA).
The spinal column is removed from decapitated rats and is placed directly in cold, i.e. located in an ice bath, HBSS buffer (Hank's buffered saline solution, Gibco Invitrogen GmbH, Karlsruhe, Germany) combined with 1 vol. % (percent by volume) of an AA solution (antibiotic/antimycotic solution, PAA, Pasching, Austria). The spinal column is cut open longitudinally and removed together with fasciae from the spinal canal. The dorsal root ganglia (DRGs) are then removed and in turn stored in cold HBSS buffer combined with 1 vol. % of an AA solution. The DRGs, from which all traces of blood and spinal nerves have been removed, are in each case transferred into 500 μL of cold collagenase type 2 (PAA, Pasching, Austria) and incubated for 35 minutes at 37° C. […] Once incubation is complete, the enzyme solution is carefully removed by pipette and the DRGs, which are left behind, are in each case combined with 500 μL of complete medium.
The DRGs are in each case repeatedly suspended, drawn by means of a syringe through […], no. 12 and no. 16 cannulas and transferred into 50 mL Falcon microtubes and each tube is made up to 15 mL with complete medium. The contents of each Falcon microtube are in each case filtered through a 70 μm Falcon filter insert and centrifuged for 10 minutes at 1200 revolutions and room temperature. The resultant pellet is in each case resuspended in 250 μL of complete medium and the cell count determined.
The number of cells in the suspension is adjusted to 3×10^5 per mL and a 150 μL portion of this suspension is in each case placed in a well of the cell culture plate which has been coated as described above.
The cells are then loaded with 2 μM Fluo-4 and 0.01 vol. % Pluronic F127 (Molecular Probes Europe BV, Leiden, Netherlands) in HBSS buffer (Hank's buffered saline solution, Gibco Invitrogen GmbH, Karlsruhe, Germany) for 30 min at 37° C., washed 3× with HBSS buffer and, after a further 15 minutes' incubation at room temperature, used for Ca^2+ measurement in the FLIPR assay. […] Quantification proceeds by measuring the highest fluorescence intensity (FC, fluorescence counts) over time.
The FLIPR protocol comprises 2 additions of substance. The compounds to be tested (10 μM) are firstly pipetted onto the cells and Ca^2+ influx is compared with the control (capsaicin 10 μM). This provides the percentage activation relative to the Ca^2+ signal after addition of 10 μM of capsaicin (CP). After 5 minutes' incubation, 100 nM of capsaicin are added and the influx of Ca^2+ is again determined.
Desensitising agonists and antagonists result in suppression of Ca^2+ influx. The percentage inhibition in comparison with the maximum achievable inhibition with 10 μM capsaicin is calculated.
Triplicate determinations (n═3) are performed and these are repeated in at least 3 independent experiments […].

vanilloid receptor (VR1) = molecular target: T2, vanilloid receptor (VR1) (Homo sapiens, UniProt Q8NER1); experiment: FLIPR Ca2+ influx assay on CHO K1 cells transfected with the VR1 gene (pharmacological method II)
T2 construct: expressed in transfected cells; host or cells: CHO K1 cells (ECACC), stably transfected
T2 sequence (Q8NER1 whole entry): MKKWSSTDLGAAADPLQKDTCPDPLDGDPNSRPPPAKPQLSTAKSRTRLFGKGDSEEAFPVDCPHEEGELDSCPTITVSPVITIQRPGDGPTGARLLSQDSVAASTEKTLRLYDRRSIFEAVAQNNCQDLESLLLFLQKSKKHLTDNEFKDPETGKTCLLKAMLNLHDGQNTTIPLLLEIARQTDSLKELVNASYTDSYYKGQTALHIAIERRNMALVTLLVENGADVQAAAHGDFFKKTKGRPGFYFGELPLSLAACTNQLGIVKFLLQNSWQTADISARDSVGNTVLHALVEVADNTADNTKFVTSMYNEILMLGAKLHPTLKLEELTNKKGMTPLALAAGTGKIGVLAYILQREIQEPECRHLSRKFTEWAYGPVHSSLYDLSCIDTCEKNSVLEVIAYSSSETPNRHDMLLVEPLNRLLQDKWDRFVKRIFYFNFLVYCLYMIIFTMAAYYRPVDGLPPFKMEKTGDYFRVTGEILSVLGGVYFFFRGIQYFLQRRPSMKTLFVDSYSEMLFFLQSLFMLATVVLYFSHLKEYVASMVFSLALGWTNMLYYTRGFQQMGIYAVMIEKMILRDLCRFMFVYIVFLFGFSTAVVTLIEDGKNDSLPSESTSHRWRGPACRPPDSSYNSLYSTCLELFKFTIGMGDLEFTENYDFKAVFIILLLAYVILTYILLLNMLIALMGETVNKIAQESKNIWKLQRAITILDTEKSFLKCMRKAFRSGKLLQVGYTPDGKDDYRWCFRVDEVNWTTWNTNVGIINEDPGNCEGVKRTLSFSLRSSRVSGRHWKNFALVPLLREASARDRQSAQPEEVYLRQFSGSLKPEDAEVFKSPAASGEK

VR1/TRPV1 receptor = VR1/TRPV1 receptor (Homo sapiens, UniProt Q8NER1); experiment: IC50 (human) after pH stimulus; details: for inhibition at 1 µM: ne = no effect; for inhibition at 1 µM / inhibition at 0.1 µM: read-out: inhibition in percent, IC50 (human) after pH stimulus
VR1/TRPV1 receptor, sequence (Q8NER1 whole entry): as above

[2] = table 4, capsaicin, read-out: Ki (rat) Cap.
[3] = table 4, capsaicin, read-out: Ki (human) Cap.
[4] = Ki (rat) Cap., table 4, capsaicin
[5] = Table 2, displacement of capsaicin (100 nM), Cheng-Prusoff, read-out: Ki (rat)
[6] = Table 2, displacement of capsaicin (100 nM), Cheng-Prusoff, read-out: Ki (human)

| SMILES | Ki [1, 2] | Ki (vanilloid receptor (VR1); [3]) | inhibition at 1 µM (VR1/TRPV1 receptor) | IC50 (VR1/TRPV1 receptor; table 4) | further results |
| --- | --- | --- | --- | --- | --- |
| CC(C(=O)NCc1ccc(C(F)(F)F)nc1N1CCN(c2ncccc2Cl)CC1)c1ccc(NS(C)(=O)=O)c(F)c1 (centres unmarked) [Example 193, N-{2-[4-(3-chloro-pyridin-2-yl)-piperazin-1-yl]-6-trifluoromethyl-pyridin-3-ylmethyl}-2-(3-fluoro-4-methylsulfonamido-phenyl)-propionamide] | 3.2 nM | 2.1 nM | 69% |  |  |
| CC(C(=O)NCc1ccc(C(F)(F)Cl)nc1OCc1ccccc1)c1ccc(NS(C)(=O)=O)c(F)c1 (centres unmarked) [Example 169, N-[2-benzyloxy-6-(chloro-difluoro-methyl)-pyridin-3-ylmethyl]-2-(3-fluoro-4-methylsulfonamido-phenyl)-propionamide] | 0.6 nM | 0.9 nM |  | 40.5 nM |  |
| CC(C(=O)NCc1ccc(C(F)(F)F)nc1OCC1CC1(C)C)c1ccc(NS(C)(=O)=O)c(F)c1 (centres unmarked) [Example 279, N-[2-(2,2-dimethyl-cyclopropylmethoxy)-6-trifluoromethyl-pyridin-3-ylmethyl]-2-(3-fluoro-4-methylsulfonamido-phenyl)-propionamide] |  | 1.1 nM |  | 161 nM | Ki [1, 4]: 1.7 nM |
| CC(C(=O)NCc1ccc(C(F)(F)F)nc1N1CCOCC1)c1ccc(NS(C)(=O)=O)c(F)c1 (centres unmarked) [Example 12, 2-(3-fluoro-4-(methylsulfonamido)phenyl)-N-((2-morpholino-6-(trifluoromethyl)pyridin-3-yl)methyl)propanamide] |  |  |  |  | Ki [1, 5]: 4.3 nM; Ki (vanilloid receptor (VR1); [6]): 1.3 nM; IC50 (VR1/TRPV1 receptor; Table 2): 169 nM |
| CC(C(=O)NCc1ccc(C(F)(F)F)nc1OC1CCC(C(C)(C)C)CC1)c1ccc(NS(C)(=O)=O)c(F)c1 (centres unmarked) [Example 170, N-[2-(4-tert-butyl-cyclohexyloxy)-6-trifluoromethyl-pyridin-3-ylmethyl]-2-(3-fluoro-4-methylsulfonamido-phenyl)-propionamide] | 5.1 nM | 7.7 nM |  | 242 nM |  |
| Cc1cc(C(C)C(=O)NCc2ccc(C(F)(F)F)nc2N2CCC(C(F)(F)F)CC2)ccc1NS(C)(=O)=O (centres unmarked) [Example 195, N-(4,6′-bis-trifluoromethyl-3,4,5,6-tetrahydro-2H-[1,2′]bipyridinyl-3′-ylmethyl)-2-(4-methylsulfonamido-3-methyl-phenyl)-propionamide] | 0.4 nM | 1.1 nM |  | 61 nM |  |
| CC(C(=O)NCc1ccc(C(F)(F)F)nc1OCc1ccc(C(C)(C)C)cc1)c1ccc(NS(C)(=O)=O)c(F)c1 (centres unmarked) [Example 244, N-[2-(4-tert-butyl-benzyloxy)-6-trifluoromethyl-pyridin-3-ylmethyl]-2-(3-fluoro-4-methylsulfonamido-phenyl)-propionamide] |  | 2.1 nM |  | 182 nM | Ki [1, 4]: 1.1 nM |
| Cc1ccc(N2CCN(c3cc(C(F)(F)F)ccc3CNC(=O)C(C)c3ccc(NS(C)(=O)=O)c(F)c3)CC2)cc1 (centres unmarked) [Example 246, 2-(3-fluoro-4-methylsulfonamido-phenyl)-N-[2-(4-p-tolyl-piperazin-1-yl)-4-trifluoromethyl-benzyl]-propionamide] | 0.5 nM | 0.7 nM |  | 87 nM |  |
| COc1ccc(N2CCN(c3cc(C(F)(F)F)ccc3CNC(=O)C(C)c3ccc(NS(C)(=O)=O)c(F)c3)CC2)cc1 (centres unmarked) [Example 249, 2-(3-fluoro-4-methylsulfonamido-phenyl)-N-{2-[4-(4-methoxy-phenyl)-piperazin-1-yl]-4-trifluoromethyl-benzyl}-propionamide] | 0.2 nM | 1.6 nM | 70% |  | inhibition at 0.1 µM (VR1/TRPV1 receptor): 31% |
| CC(C(=O)NCc1ccc(C(F)(F)F)cc1N1CCC(C)(C)CC1)c1ccc(NS(C)(=O)=O)c(F)c1 (centres unmarked) [Example 218, N-[2-(4,4-dimethyl-piperidin-1-yl)-4-trifluoromethyl-benzyl]-2-(3-fluoro-4-methylsulfonamido-phenyl)-propionamide] | 0.4 nM | 1.3 nM |  | 13.8 nM |  |
| C[C@H](C(=O)NCc1ccc(C(F)(F)F)nc1-c1ccc(F)c(Cl)c1)c1ccc(NS(C)(=O)=O)c(F)c1 [Example 120, (S)-N-[2-(3-chloro-4-fluoro-phenyl)-6-trifluoromethyl-pyridin-3-ylmethyl]-2-(3-fluoro-4-methylsulfonamido-phenyl)-propionamide] | 0.4 nM | 0.7 nM | 51% |  |  |
| Cc1cc(C(C)C(=O)NCc2ccc(C(F)(F)F)nc2OCc2ccccc2)ccc1NS(C)(=O)=O (centres unmarked) [Example 204, N-(2-benzyloxy-6-trifluoromethyl-pyridin-3-ylmethyl)-2-(4-methylsulfonamido-3-methyl-phenyl)-propionamide] | 1.6 nM | 4 nM |  | 148 nM |  |
| CCCN(CCC)c1cc(C(F)(F)F)ccc1CNC(=O)C(C)c1ccc(NS(C)(=O)=O)c(F)c1 (centres unmarked) [Example 37, N-(2-(dipropylamino)-4-(trifluoromethyl)benzyl)-2-(3-fluoro-4-(methylsulfonamido)phenyl)propanamide] | 1.8 nM | 0.3 nM |  | 26.2 nM |  |
| CC(C)CCCc1nc(C(F)(F)F)ccc1CNC(=O)C(C)c1ccc(NS(C)(=O)=O)c(F)c1 (centres unmarked) [Example 268, 2-(3-fluoro-4-methylsulfonamido-phenyl)-N-[2-(4-methyl-pentyl)-6-trifluoromethyl-pyridin-3-ylmethyl]-propionamide] | 0.8 nM | 0.9 nM |  | 17 nM |  |
| CC(C(=O)NCc1ccc(C(F)(F)F)nc1CCC(C)(C)C)c1ccc(NS(C)(=O)=O)c(F)c1 (centres unmarked) [Example 263, N-[2-(3,3-dimethyl-butyl)-6-trifluoromethyl-pyridin-3-ylmethyl]-2-(3-fluoro-4-methylsulfonamido-phenyl)-propionamide] | 0.7 nM | 0.6 nM | 63% |  |  |
| CC(C(=O)NCc1ccc(C(F)(F)F)nc1-c1ccccc1)c1ccc(NS(C)(=O)=O)c(F)c1 (centres unmarked) [Example 22, 2-(3-fluoro-4-(methylsulfonamido)phenyl)-N-((2-phenyl-6-(trifluoromethyl)pyridin-3-yl)methyl)propanamide] |  |  |  |  | Ki [1, 5]: 4.9 nM; Ki (vanilloid receptor (VR1); [6]): 6.4 nM; IC50 (VR1/TRPV1 receptor; Table 2): 62 nM |
| CC1CCN(c2nc(C(C)(C)C)ccc2CNC(=O)C(C)c2ccc(NS(C)(=O)=O)c(F)c2)CC1 (centres unmarked) [Example 241, N-(6′-tert-butyl-4-methyl-3,4,5,6-tetrahydro-2H-[1,2′]bipyridinyl-3′-ylmethyl)-2-(3-fluoro-4-methylsulfonamido-phenyl)-propionamide] | 0.5 nM | 1.9 nM | 79% |  | inhibition at 0.1 µM (VR1/TRPV1 receptor): 34% |
| CCCCc1ccc(COc2nc(C(F)(F)F)ccc2CNC(=O)C(C)c2ccc(NS(C)(=O)=O)c(F)c2)cc1 (centres unmarked) [Example 243, N-[2-(4-butyl-benzyloxy)-6-trifluoromethyl-pyridin-3-ylmethyl]-2-(3-fluoro-4-methylsulfonamido-phenyl)-propionamide] | 5.1 nM | 16 nM |  | 337 nM |  |
| CC(C)OC1CCN(c2nc(C(F)(F)F)ccc2CNC(=O)C(C)c2ccc(NS(C)(=O)=O)c(F)c2)CC1 (centres unmarked) [Example 162, 2-(3-fluoro-4-methylsulfonamido-phenyl)-N-(4-isopropoxy-6′-trifluoromethyl-3,4,5,6-tetrahydro-2H-[1,2′]bipyridinyl-3′-ylmethyl)-propionamide] | 1.6 nM | 3 nM | 58% |  |  |
